Measurements: PubChem BioAssay (NCI)
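96-well plates; 48 h exposure; 5 concentrations. Endpoints by linear interpolation between flanking doses. Not reached: highest tested concentration assigned. At the TGI there is no net growth.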

Assays:
Assay in all cases: NCI anticancer screen, dose series, 48 h
[1] = tested on: MDA-N
[2] = tested on: T-47D breast
[3] = tested on: TK-10 renal
[4] = tested on: MALME-3M melanoma
[5] = tested on: NCI/ADR-RES ovarian
[6] = tested on: HCT-116 colon
[7] = tested on: SK-OV-3 ovarian
[8] = tested on: OVCAR-8 ovarian
[9] = tested on: HOP-92 NSCLC
[10] = tested on: HS 578T breast
[11] = tested on: SK-MEL-5 melanoma
[12] = tested on: OVCAR-4 ovarian
[13] = tested on: MDA-MB-231 breast
[14] = tested on: U251 CNS
[15] = tested on: EKVX NSCLC
[16] = tested on: NCI-H522 lung
[17] = tested on: COLO 205 colon
[18] = tested on: SN12C renal
[19] = tested on: KM12 colon
[20] = tested on: SW-620 colon
[21] = tested on: MCF7 breast
[22] = tested on: SK-MEL-28 melanoma
[23] = tested on: NCI-H226 lung
[24] = tested on: K-562 leukemia
[25] = tested on: NCI-H23 lung
[26] = tested on: HCC-2998 colon
[27] = tested on: SK-MEL-2 melanoma
[28] = tested on: RPMI-8226 leukemia
[29] = tested on: M14 melanoma
[30] = tested on: A549 NSCLC
[31] = tested on: BT-549 breast
[32] = tested on: UO-31 renal
[33] = tested on: MOLT-4 leukemia
[34] = tested on: A498 renal
[35] = tested on: IGROV1 ovarian
[36] = tested on: HOP-62 NSCLC
[37] = tested on: PC-3 prostate
[38] = tested on: SF-295 CNS
[39] = tested on: MDA-MB-435
[40] = tested on: CCRF-CEM leukemia
[41] = tested on: OVCAR-5 ovarian
[42] = tested on: HCT-15 colon
[43] = tested on: NCI-H460 lung
[44] = tested on: RXF 393 renal
[45] = tested on: SNB-19 CNS
[46] = tested on: HT29 colon
[47] = tested on: SF-268 CNS
[48] = tested on: CAKI-1 renal
[49] = tested on: SF-539 CNS
[50] = tested on: 786-0 renal
[51] = tested on: HL-60(TB) leukemia
[52] = tested on: DU-145 prostate
[53] = tested on: OVCAR-3 ovarian
[54] = tested on: UACC-62 melanoma
[55] = tested on: UACC-257 melanoma
[56] = tested on: ACHN renal
[57] = tested on: SR leukemia
[58] = tested on: LOX IMVI melanoma
[59] = tested on: SNB-75 CNS

With `Nc1c2c(=O)[nH]c(=O)c2c(N)c2c(=O)c3ccccc3c(=O)c12` the TGI [1] was 0.448 µM, the TGI [2] was over 49.6 µM and the TGI [3] was 40.7 µM. For the same molecule, the TGI [4] was 0.581 µM, the TGI [5] was 5.9 µM and the TGI [6] was over 100 µM. The TGI [7] was 32.9 µM, the TGI [8] was 5.82 µM and the TGI [9] was 51.9 µM. It also gave a TGI [10] of over 25.9 µM, a TGI [11] of 0.394 µM and a TGI [12] of 3.39 µM. It also gave a TGI [13] of over 29.5 µM, a TGI [14] of over 90 µM and a TGI [15] of 9.55 µM. It also gave a TGI [16] of 13.5 µM, a TGI [17] of 1.85 µM and a TGI [18] of 3.17 µM. The TGI [19] was 7.56 µM, the TGI [20] was 4.65 µM and the TGI [21] was 2.72 µM. For the same molecule, the TGI [22] was 3.98 µM, the TGI [23] was 4.96 µM and the TGI [24] was over 45.9 µM. It also gave a TGI [25] of 3.17 µM, a TGI [26] of over 63.3 µM and a TGI [27] of 6.2 µM. For the same molecule, the TGI [28] was 8.53 µM, the TGI [29] was 0.88 µM and the TGI [30] was over 23.1 µM. It also gave a TGI [31] of 3.71 µM, a TGI [32] of 31.1 µM and a TGI [33] of over 26.4 µM. The TGI [34] was 2.85 µM, the TGI [35] was 10.8 µM and the TGI [36] was 6.85 µM. It also gave a TGI [37] of over 36.6 µM, a TGI [38] of 3.07 µM and a TGI [39] of 2.46 µM. For the same molecule, the TGI [40] was over 26.7 µM, the TGI [41] was 3.42 µM and the TGI [42] was 3.19 µM. It also gave a TGI [43] of 2.52 µM, a TGI [44] of 35.6 µM and a TGI [45] of over 57.4 µM. The TGI [46] was 2.83 µM, the TGI [47] was 15.5 µM and the TGI [48] was 22.9 µM. The TGI [49] was 4.52 µM, the TGI [50] was 10.9 µM and the TGI [51] was over 100 µM. For the same molecule, the TGI [52] was 3.95 µM, the TGI [53] was 4.31 µM and the TGI [54] was 3.25 µM. The TGI [55] was 3.17 µM and the TGI [56] was 9.79 µM.
Molecule `O=C1c2ccccc2C(=O)c2c(Nc3ccc4c5c(cccc35)C(=O)c3ccccc3-4)cccc21` has a TGI [1] of over 100 µM, a TGI [57] of over 100 µM and a TGI [2] of over 100 µM. For the same molecule, the TGI [3] was over 100 µM, the TGI [4] was over 100 µM and the TGI [5] was over 100 µM. The TGI [6] was over 100 µM, the TGI [9] was over 100 µM and the TGI [10] was over 100 µM. For the same molecule, the TGI [11] was over 100 µM, the TGI [12] was over 100 µM and the TGI [13] was over 100 µM. The TGI [14] was over 100 µM, the TGI [15] was over 100 µM and the TGI [16] was over 100 µM. The TGI [18] was over 100 µM, the TGI [19] was over 100 µM and the TGI [20] was over 100 µM. The TGI [23] was over 100 µM, the TGI [24] was over 100 µM and the TGI [25] was over 100 µM. It also gave a TGI [26] of over 100 µM, a TGI [27] of over 100 µM and a TGI [29] of over 100 µM. It also gave a TGI [30] of over 100 µM, a TGI [31] of over 100 µM and a TGI [58] of over 100 µM. The TGI [32] was over 100 µM, the TGI [33] was over 100 µM and the TGI [34] was over 100 µM. It also gave a TGI [35] of over 100 µM, a TGI [36] of over 100 µM and a TGI [37] of over 100 µM. The TGI [38] was over 100 µM, the TGI [39] was over 100 µM and the TGI [41] was over 100 µM. It also gave a TGI [42] of over 100 µM, a TGI [43] of over 100 µM and a TGI [44] of over 100 µM. For the same molecule, the TGI [45] was over 100 µM, the TGI [46] was over 100 µM and the TGI [47] was over 100 µM. It also gave a TGI [48] of over 100 µM, a TGI [59] of over 100 µM and a TGI [50] of over 100 µM. For the same molecule, the TGI [52] was over 100 µM, the TGI [53] was over 100 µM and the TGI [54] was over 100 µM. It also gave a TGI [55] of over 100 µM and a TGI [56] of over 100 µM.
With `CCCCc1c2c(nc3c1CCCC3O)CCCC2` (configuration not stated) the TGI [1] was over 100 µM, the TGI [57] was over 100 µM and the TGI [3] was over 100 µM. It also gave a TGI [4] of over 100 µM, a TGI [5] of over 100 µM and a TGI [6] of over 100 µM. It also gave a TGI [7] of over 100 µM, a TGI [8] of over 100 µM and a TGI [9] of over 100 µM. The TGI [10] was over 100 µM, the TGI [11] was over 100 µM and the TGI [12] was over 100 µM. For the same molecule, the TGI [13] was over 100 µM, the TGI [14] was over 100 µM and the TGI [15] was over 100 µM. The TGI [16] was over 100 µM, the TGI [17] was over 100 µM and the TGI [18] was over 100 µM. The TGI [19] was over 100 µM, the TGI [20] was over 100 µM and the TGI [21] was over 100 µM. The TGI [23] was over 100 µM, the TGI [24] was over 100 µM and the TGI [25] was over 100 µM. For the same molecule, the TGI [26] was over 100 µM, the TGI [27] was over 100 µM and the TGI [28] was over 100 µM. For the same molecule, the TGI [29] was over 100 µM, the TGI [30] was over 100 µM and the TGI [31] was over 100 µM. It also gave a TGI [32] of over 100 µM, a TGI [33] of over 100 µM and a TGI [34] of over 100 µM. For the same molecule, the TGI [35] was over 100 µM, the TGI [36] was over 100 µM and the TGI [37] was over 100 µM. It also gave a TGI [38] of over 100 µM, a TGI [39] of over 100 µM and a TGI [40] of over 100 µM. For the same molecule, the TGI [41] was over 100 µM, the TGI [42] was over 100 µM and the TGI [43] was over 100 µM. For the same molecule, the TGI [44] was over 100 µM, the TGI [45] was over 100 µM and the TGI [46] was over 100 µM. It also gave a TGI [47] of over 100 µM, a TGI [48] of over 100 µM and a TGI [59] of over 100 µM. It also gave a TGI [49] of over 100 µM, a TGI [50] of over 100 µM and a TGI [51] of over 100 µM. It also gave a TGI [52] of over 100 µM, a TGI [53] of over 100 µM and a TGI [54] of over 100 µM. The TGI [55] was over 100 µM and the TGI [56] was over 100 µM.
`CC(C)(C)c1cc(C(C)(C)C)c(SS(=O)(=O)O)c(O)c1O` showed a TGI [1] of over 100 µM, a TGI [2] of over 100 µM and a TGI [3] of over 100 µM. The TGI [4] was over 100 µM, the TGI [5] was over 100 µM and the TGI [6] was over 100 µM. It also gave a TGI [7] of over 100 µM, a TGI [8] of over 100 µM and a TGI [9] of over 100 µM. It also gave a TGI [11] of over 100 µM, a TGI [12] of over 100 µM and a TGI [13] of over 100 µM. It also gave a TGI [14] of over 100 µM, a TGI [15] of over 100 µM and a TGI [17] of over 100 µM. For the same molecule, the TGI [18] was over 100 µM, the TGI [19] was over 100 µM and the TGI [20] was over 100 µM. The TGI [21] was over 100 µM, the TGI [22] was over 100 µM and the TGI [23] was over 100 µM. It also gave a TGI [24] of over 100 µM, a TGI [25] of over 100 µM and a TGI [27] of 94.5 µM. It also gave a TGI [28] of over 100 µM, a TGI [29] of over 100 µM and a TGI [30] of over 100 µM. The TGI [31] was over 100 µM, the TGI [58] was over 100 µM and the TGI [32] was over 100 µM. It also gave a TGI [33] of 0.219 µM, a TGI [34] of over 100 µM and a TGI [35] of over 100 µM. It also gave a TGI [36] of over 100 µM, a TGI [37] of over 100 µM and a TGI [38] of over 100 µM. For the same molecule, the TGI [39] was over 100 µM, the TGI [40] was over 100 µM and the TGI [41] was over 100 µM. For the same molecule, the TGI [42] was over 100 µM, the TGI [43] was over 100 µM and the TGI [44] was 97.9 µM. The TGI [45] was over 100 µM, the TGI [46] was over 100 µM and the TGI [47] was over 100 µM. The TGI [48] was over 100 µM, the TGI [59] was 99.1 µM and the TGI [49] was 37.4 µM. It also gave a TGI [50] of over 100 µM, a TGI [51] of over 100 µM and a TGI [52] of over 100 µM. The TGI [53] was over 100 µM, the TGI [54] was 55.2 µM and the TGI [55] was over 100 µM. It also gave a TGI [56] of over 100 µM.
